Results reported in the supplement of paper PMC11061612.

What was measured:
AZD4320 = compound: CN(CC[C@H](CSC1=CC=CC=C1)NC2=C(C=C(C=C2)S(=O)(=O)NC(=O)C3=CC=C(C=C3)N4CCC(CC4)[C@H](C5=CC=CC=C5C6=CC=C(C=C6)Cl)O)S(=O)(=O)C(F)(F)F)CCO [AZD4320]; conditions: max 1 µM
Outline: (§1)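 Cancer cell lines were dosed for 72 hours (final DMSO typically 0.2%) after 24 hours at 37°C and 5% CO2 in 1536-well plates containing 7.5 μl DMEM/F12 or RPMI with 10% FBS. Viability came from CellTiter-Glo 2.0 luminescence, scaled between blank-well and DMSO-well means, and dose responses were fitted to a two-parameter logistic curve with a non-linear mixed effects model. The single-agent IC50 was obtained from this fit.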

Venetoclax = compound: CC1(C)CCC(CN2CCN(c3ccc(C(=O)NS(=O)(=O)c4ccc(NCC5CCOCC5)c([N+](=O)[O-])c4)c(Oc4cnc5[nH]ccc5c4)c3)CC2)=C(c2ccc(Cl)cc2)C1 [Venetoclax]; conditions: max 1 µM
Outline: as §1

Dasatinib = compound: CC1=C(C(=CC=C1)Cl)NC(=O)C2=CN=C(S2)NC3=CC(=NC(=N3)C)N4CCN(CC4)CCO [Dasatinib]; conditions: max 2 µM
Outline: as §1

Taselisib = compound: Cc1nc(-c2cn3c(n2)-c2ccc(-c4cnn(C(C)(C)C(N)=O)c4)cc2OCC3)n(C(C)C)n1 [Taselisib]; conditions: max 10 µM
Outline: as §1

Alisertib = compound: COc1cc(Nc2ncc3c(n2)-c2ccc(Cl)cc2C(c2c(F)cccc2OC)=NC3)ccc1C(=O)O [Alisertib]; conditions: max 10 µM
Outline: as §1

Capivasertib = compound: C1CN(CCC1(C(=O)N[C@@H](CCO)C2=CC=C(C=C2)Cl)N)C3=NC=NC4=C3C=CN4 [Capivasertib]; conditions: max 10 µM
Outline: as §1

Doxorubicin = compound: COc1cccc2c1C(=O)c1c(O)c3c(c(O)c1C2=O)C[C@@](O)(C(=O)CO)C[C@@H]3O[C@H]1C[C@H](N)[C@H](O)[C@H](C)O1 [Doxorubicin]; conditions: max 1 µM
Outline: as §1

Savolitinib = compound: C[C@@H](c1ccc2nccn2c1)n1nnc2ncc(-c3cnn(C)c3)nc21 [Savolitinib]; conditions: max 1 µM
Outline: as §1

Gefitinib = compound: COc1cc2ncnc(Nc3ccc(F)c(Cl)c3)c2cc1OCCCN1CCOCC1 [Gefitinib]; conditions: max 10 µM
Outline: as §1

AZD8186 = compound: C[C@@H](Nc1cc(F)cc(F)c1)c1cc(C(=O)N(C)C)cc2c(=O)cc(N3CCOCC3)oc12 [AZD8186]; conditions: max 3 µM
Outline: as §1

SG3199 = compound: CC1=CN2[C@@H](C1)C=NC3=CC(=C(C=C3C2=O)OC)OCCCCCOC4=C(C=C5C(=C4)N=C[C@@H]6CC(=CN6C5=O)C)OC [SG3199]; conditions: max 0.001 µM
Outline: as §1

AZD6738 = compound: C[C@@H]1COCCN1C2=NC(=NC(=C2)C3(CC3)[S@](=N)(=O)C)C4=C5C=CNC5=NC=C4 [AZD6738]; conditions: max 10 µM
Outline: as §1

Trametinib = compound: CC(=O)Nc1cccc(-n2c(=O)n(C3CC3)c(=O)c3c(Nc4ccc(I)cc4F)n(C)c(=O)c(C)c32)c1 [Trametinib]; conditions: max 1 µM
Outline: as §1

AZD7648 = compound: Cc1cc2ncnn2cc1Nc1ncc2c(n1)n(C1CCOCC1)c(=O)n2C [AZD7648]; conditions: max 10 µM
Outline: as §1

AZD5991 = compound: Cc1c2c(nn1C)CSCc1cc(n(C)n1)CSc1cc(c3ccccc3c1)OCCCc1c(C(=O)O)n(C)c3c-2c(Cl)ccc13 [AZD5991]; conditions: max 1 µM
Outline: as §1

AZD1390 = compound: CC(C)n1c(=O)n(C)c2cnc3cc(F)c(-c4ccc(OCCCN5CCCCC5)nc4)cc3c21 [AZD1390]; conditions: max 0.3 µM
Outline: as §1

Crizotinib = compound: C[C@@H](Oc1cc(-c2cnn(C3CCNCC3)c2)cnc1N)c1c(Cl)ccc(F)c1Cl [Crizotinib]; conditions: max 10 µM
Outline: as §1

AZD5153 = compound: COc1nnc2ccc(N3CCC(c4ccc(OCCN5CCN(C)C(=O)[C@H]5C)cc4)CC3)nn12 [AZD5153]; conditions: max 1 µM
Outline: as §1

AZD1775 = compound: C=CCn1c(=O)c2cnc(Nc3ccc(N4CCN(C)CC4)cc3)nc2n1-c1cccc(C(C)(C)O)n1 [AZD1775]; conditions: max 3 µM
Outline: as §1

Palbociclib = compound: CC(=O)c1c(C)c2cnc(Nc3ccc(N4CCNCC4)cn3)nc2n(C2CCCC2)c1=O [Palbociclib]; conditions: max 10 µM
Outline: as §1

SN-38 = compound: CCc1c2c(nc3ccc(O)cc13)-c1cc3c(c(=O)n1C2)COC(=O)[C@]3(O)CC [SN-38]; conditions: max 0.3 µM
Outline: as §1

Lapatinib = compound: CS(=O)(=O)CCNCc1ccc(-c2ccc3ncnc(Nc4ccc(OCc5cccc(F)c5)c(Cl)c4)c3c2)o1 [Lapatinib]; conditions: max 10 µM
Outline: as §1

Prexasertib = compound: COc1cccc(OCCCN)c1-c1cc(Nc2cnc(C#N)cn2)n[nH]1 [Prexasertib]; conditions: max 1 µM
Outline: as §1

Olaparib = compound: O=C(c1cc(Cc2n[nH]c(=O)c3ccccc23)ccc1F)N1CCN(C(=O)C2CC2)CC1 [Olaparib]; conditions: max 10 µM
Outline: as §1

Selumetinib = compound: Cn1cnc2c(F)c(Nc3ccc(Br)cc3Cl)c(C(=O)NOCCO)cc21 [Selumetinib]; conditions: max 10 µM
Outline: as §1

AZD2811 = compound: CCN(CCO)CCCOc1ccc2c(Nc3cc(CC(=O)Nc4cccc(F)c4)[nH]n3)ncnc2c1 [AZD2811]; conditions: max 1 µM
Outline: as §1

AZD0156 = compound: CN(C)CCCOc1ccc(-c2ccc3ncc4c(c3c2)n(C2CCOCC2)c(=O)n4C)cn1 [AZD0156]; conditions: max 3 µM
Outline: as §1

MK-2206 = compound: NC1(c2ccc(-c3nc4ccn5c(=O)[nH]nc5c4cc3-c3ccccc3)cc2)CCC1 [MK-2206]; conditions: max 10 µM
Outline: as §1

HT-1080 (Other Solid Carcinomas)
IC50, cell viability 72 h (AZD4320): 721 nM
IC50, cell viability 72 h (Venetoclax): > 1000 nM
IC50, cell viability 72 h (Dasatinib): > 2000 nM
IC50, cell viability 72 h (Taselisib): > 10000 nM
IC50, cell viability 72 h (Alisertib): > 10000 nM
IC50, cell viability 72 h (Capivasertib): > 10000 nM
IC50, cell viability 72 h (Doxorubicin): > 1000 nM
IC50, cell viability 72 h (Savolitinib): > 1000 nM
IC50, cell viability 72 h (Gefitinib): > 10000 nM
IC50, cell viability 72 h (AZD8186): > 3000 nM
IC50, cell viability 72 h (SG3199): > 1 nM
IC50, cell viability 72 h (AZD6738): > 10000 nM
IC50, cell viability 72 h (Trametinib): > 1000 nM
IC50, cell viability 72 h (AZD7648): > 10000 nM
IC50, cell viability 72 h (AZD5991): > 1000 nM
IC50, cell viability 72 h (AZD1390): > 300 nM
IC50, cell viability 72 h (Crizotinib): > 10000 nM
IC50, cell viability 72 h (AZD5153): > 1000 nM
IC50, cell viability 72 h (AZD1775): > 3000 nM
IC50, cell viability 72 h (Palbociclib): > 10000 nM
IC50, cell viability 72 h (SN-38): > 300 nM
IC50, cell viability 72 h (Lapatinib): > 10000 nM
IC50, cell viability 72 h (Prexasertib): 536 nM
IC50, cell viability 72 h (Olaparib): > 10000 nM
IC50, cell viability 72 h (Selumetinib): > 10000 nM
IC50, cell viability 72 h (AZD2811): > 1000 nM
IC50, cell viability 72 h (AZD0156): > 3000 nM

OAW-28 (Ovarian Carcinoma)
IC50, cell viability 72 h (AZD4320): 176 nM
IC50, cell viability 72 h (Venetoclax): > 1000 nM
IC50, cell viability 72 h (Dasatinib): > 2000 nM
IC50, cell viability 72 h (Taselisib): 6130 nM
IC50, cell viability 72 h (Alisertib): > 10000 nM
IC50, cell viability 72 h (Capivasertib): > 10000 nM
IC50, cell viability 72 h (MK-2206): > 10000 nM
IC50, cell viability 72 h (Doxorubicin): > 1000 nM
IC50, cell viability 72 h (Savolitinib): > 1000 nM
IC50, cell viability 72 h (Gefitinib): > 10000 nM
IC50, cell viability 72 h (AZD8186): > 3000 nM
IC50, cell viability 72 h (SG3199): > 1 nM
IC50, cell viability 72 h (AZD6738): > 10000 nM
IC50, cell viability 72 h (Trametinib): > 1000 nM
IC50, cell viability 72 h (AZD7648): > 10000 nM
IC50, cell viability 72 h (AZD5991): > 1000 nM
IC50, cell viability 72 h (AZD1390): > 300 nM
IC50, cell viability 72 h (Crizotinib): > 10000 nM
IC50, cell viability 72 h (AZD5153): > 1000 nM
IC50, cell viability 72 h (AZD1775): > 3000 nM
IC50, cell viability 72 h (Palbociclib): > 10000 nM
IC50, cell viability 72 h (SN-38): 11.4 nM
IC50, cell viability 72 h (Lapatinib): > 10000 nM
IC50, cell viability 72 h (Prexasertib): 720 nM
IC50, cell viability 72 h (Olaparib): > 10000 nM
IC50, cell viability 72 h (Selumetinib): > 10000 nM
IC50, cell viability 72 h (AZD2811): > 1000 nM
IC50, cell viability 72 h (AZD0156): > 3000 nM

WM35 (Melanoma)
IC50, cell viability 72 h (AZD4320): > 1000 nM
IC50, cell viability 72 h (Venetoclax): > 1000 nM
IC50, cell viability 72 h (Dasatinib): > 2000 nM
IC50, cell viability 72 h (Taselisib): > 10000 nM
IC50, cell viability 72 h (Alisertib): > 10000 nM
IC50, cell viability 72 h (Capivasertib): > 10000 nM
IC50, cell viability 72 h (Doxorubicin): > 1000 nM
IC50, cell viability 72 h (Savolitinib): > 1000 nM
IC50, cell viability 72 h (Gefitinib): > 10000 nM
IC50, cell viability 72 h (AZD8186): > 3000 nM
IC50, cell viability 72 h (SG3199): > 1 nM
IC50, cell viability 72 h (AZD6738): > 10000 nM
IC50, cell viability 72 h (Trametinib): 16.6 nM
IC50, cell viability 72 h (AZD7648): > 10000 nM
IC50, cell viability 72 h (AZD5991): > 1000 nM
IC50, cell viability 72 h (AZD1390): > 300 nM
IC50, cell viability 72 h (Crizotinib): > 10000 nM
IC50, cell viability 72 h (AZD5153): > 1000 nM
IC50, cell viability 72 h (AZD1775): > 3000 nM
IC50, cell viability 72 h (Palbociclib): > 10000 nM
IC50, cell viability 72 h (SN-38): 210 nM
IC50, cell viability 72 h (Lapatinib): > 10000 nM
IC50, cell viability 72 h (Prexasertib): 134 nM
IC50, cell viability 72 h (Olaparib): > 10000 nM
IC50, cell viability 72 h (Selumetinib): 1090 nM
IC50, cell viability 72 h (AZD2811): > 1000 nM
IC50, cell viability 72 h (AZD0156): > 3000 nM

CL-11 (Colorectal Carcinoma)
IC50, cell viability 72 h (AZD4320): > 1000 nM
IC50, cell viability 72 h (Venetoclax): > 1000 nM
IC50, cell viability 72 h (Dasatinib): > 2000 nM
IC50, cell viability 72 h (Taselisib): > 10000 nM
IC50, cell viability 72 h (Alisertib): 527 nM
IC50, cell viability 72 h (Capivasertib): > 10000 nM
IC50, cell viability 72 h (Doxorubicin): > 1000 nM
IC50, cell viability 72 h (Savolitinib): > 1000 nM
IC50, cell viability 72 h (Gefitinib): > 10000 nM
IC50, cell viability 72 h (AZD8186): > 3000 nM
IC50, cell viability 72 h (SG3199): > 1 nM
IC50, cell viability 72 h (AZD6738): 3040 nM
IC50, cell viability 72 h (Trametinib): 33.5 nM
IC50, cell viability 72 h (AZD7648): > 10000 nM
IC50, cell viability 72 h (AZD5991): > 1000 nM
IC50, cell viability 72 h (AZD1390): > 300 nM
IC50, cell viability 72 h (Crizotinib): > 10000 nM
IC50, cell viability 72 h (AZD5153): 224 nM
IC50, cell viability 72 h (AZD1775): 859 nM
IC50, cell viability 72 h (Palbociclib): > 10000 nM
IC50, cell viability 72 h (SN-38): 57.9 nM
IC50, cell viability 72 h (Lapatinib): > 10000 nM
IC50, cell viability 72 h (Prexasertib): 90.3 nM
IC50, cell viability 72 h (Olaparib): > 10000 nM
IC50, cell viability 72 h (Selumetinib): 1060 nM
IC50, cell viability 72 h (AZD2811): > 1000 nM
IC50, cell viability 72 h (AZD0156): > 3000 nM
